According to the supplement of paper PMC10307832:

Experiments:
Experiment in all cases: relative viability (nuclei count vs DMSO), 5 days (fraction); higher = more cells survive
Apatinib + Trametinib = compound: N#CC1(c2ccc(NC(=O)c3cccnc3NCc3ccncc3)cc2)CCCC1 [Apatinib] + CC(=O)Nc1cccc(-n2c(=O)n(C3CC3)c(=O)c3c(Nc4ccc(I)cc4F)n(C)c(=O)c(C)c32)c1 [Trametinib] (partner 0.02 µM)
Procedure, shortened: (§1)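 Lung cancer cell lines were pin-tool dosed in 1536-well plates on the day after seeding, with either a lone drug or a fixed anchor-drug dose plus five library-drug doses (not always all listed) in √10 steps. Nuclei were counted on 4× images after 5 days. Relative viability is the ratio of treated-well to vehicle-well nuclei counts, with each value a median of duplicate plates.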

Apatinib + Pemetrexed = compound: N#CC1(c2ccc(NC(=O)c3cccnc3NCc3ccncc3)cc2)CCCC1 [Apatinib] + Nc1nc2[nH]cc(CCc3ccc(C(=O)N[C@@H](CCC(=O)O)C(=O)O)cc3)c2c(=O)[nH]1 [Pemetrexed] (partner 0.2 µM)
Procedure, shortened: as §1

Apatinib + Foretinib = compound: N#CC1(c2ccc(NC(=O)c3cccnc3NCc3ccncc3)cc2)CCCC1 [Apatinib] + COc1cc2c(Oc3ccc(NC(=O)C4(C(=O)Nc5ccc(F)cc5)CC4)cc3F)ccnc2cc1OCCCN1CCOCC1 [Foretinib] (partner 0.25 µM)
Procedure, shortened: as §1

Metformin + Pemetrexed = compound: CN(C)C(=N)NC(=N)N [Metformin] + Nc1nc2[nH]cc(CCc3ccc(C(=O)N[C@@H](CCC(=O)O)C(=O)O)cc3)c2c(=O)[nH]1 [Pemetrexed] (partner 0.2 µM)
Procedure, shortened: as §1

Cell Line | relative viability (Apatinib + Trametinib; first compound 0.08 µM) | relative viability (Apatinib + Trametinib; first compound 0.253 µM) | relative viability (Apatinib + Trametinib; first compound 0.8 µM) | relative viability (Apatinib + Trametinib; first compound 2.53 µM) | relative viability (Apatinib + Trametinib; first compound 8 µM) | relative viability (Apatinib + Pemetrexed; first compound 0.08 µM) | relative viability (Apatinib + Pemetrexed; first compound 0.253 µM) | relative viability (Apatinib + Pemetrexed; first compound 0.8 µM) | relative viability (Apatinib + Pemetrexed; first compound 2.53 µM) | relative viability (Apatinib + Pemetrexed; first compound 8 µM) | relative viability (Apatinib + Foretinib; first compound 0.08 µM) | relative viability (Apatinib + Foretinib; first compound 0.253 µM) | relative viability (Apatinib + Foretinib; first compound 0.8 µM) | relative viability (Apatinib + Foretinib; first compound 2.53 µM) | relative viability (Apatinib + Foretinib; first compound 8 µM) | relative viability (Metformin + Pemetrexed; first compound 10 µM) | relative viability (Metformin + Pemetrexed; first compound 31.62 µM) | relative viability (Metformin + Pemetrexed; first compound 100 µM) | relative viability (Metformin + Pemetrexed; first compound 316.23 µM) | relative viability (Metformin + Pemetrexed; first compound 1000 µM)
RERF-LC-KJ | 0.89 | 0.849 | 0.891 | 0.758 | 0.711 | 0.493 | 0.466 | 0.381 | 0.451 | 0.327 | 0.875 | 0.931 | 0.857 | 0.737 | 0.733 | 0.491 | 0.447 | 0.504 | 0.426 | 0.455
NCI-H2347 | 0.294 | 0.228 | 0.249 | 0.291 | 0.268 | 0.477 | 0.404 | 0.449 | 0.409 | 0.409 | 0.657 | 0.912 | 0.856 |  | 0.766 | 0.406 | 0.482 | 0.408 | 0.465 | 0.399
NCI-H520 | 0.666 | 0.66 | 0.787 | 0.485 | 0.325 | 0.668 | 0.678 | 0.736 | 0.552 | 0.322 | 0.865 | 0.72 | 0.844 | 0.558 | 0.651 | 0.656 | 0.593 | 0.688 | 0.657 | 0.689
NCI-H1395 | 1.03 | 1.05 | 0.915 | 0.965 | 0.965 | 0.913 | 0.802 | 0.881 | 0.685 | 0.635 | 1.02 | 1.01 | 1.04 | 0.99 | 1.02 | 1.05 | 1.1 | 0.998 | 0.624 | 0.488
LK-2 | 0.605 | 0.671 | 0.75 | 0.793 | 0.395 | 0.255 | 0.243 | 0.255 | 0.181 | 0.134 | 1.37 | 1.13 | 1.13 | 1.1 | 0.645 | 0.319 | 0.292 | 0.255 | 0.237 | 0.306
PC-14 | 0.754 | 0.897 | 0.563 | 0.636 | 0.388 | 0.142 | 0.133 | 0.124 | 0.0984 | 0.0405 | 1.02 | 1.01 | 0.83 | 0.973 | 1.06 | 0.167 | 0.154 | 0.164 | 0.14 | 0.157
NCI-H2023 | 0.635 | 0.647 | 0.492 | 0.489 | 0.399 | 0.212 | 0.278 | 0.2 | 0.191 | 0.204 | 0.963 | 0.751 | 0.849 | 1.02 | 0.794 | 0.185 | 0.219 | 0.226 | 0.187 | 0.205
NCI-H838 | 0.626 | 0.573 | 0.473 | 0.49 | 0.467 | 0.259 | 0.291 | 0.228 | 0.221 | 0.207 | 1.14 | 1.18 | 0.997 | 0.946 | 0.986 | 0.28 | 0.266 | 0.278 | 0.266 | 0.271
